Reference: publication PMC11940505, “Antivirulence Properties of Kuraridin Against Methicillin-Resistant Staphylococcus aureus (MRSA)” (Biomedicines, 2025)

Biological target: T1, Sortase A (SrtA) (Staphylococcus aureus, UniProt Q2FV99)
T1 construct: recombinant SrtA enzyme (BPS Bioscience)
Experiment: fluorescence cleavage assay of Abz-LPETG-K(Dnp)-NH2 with recombinant SrtA
Type: biochemical

T1 sequence (Q2FV99 whole entry): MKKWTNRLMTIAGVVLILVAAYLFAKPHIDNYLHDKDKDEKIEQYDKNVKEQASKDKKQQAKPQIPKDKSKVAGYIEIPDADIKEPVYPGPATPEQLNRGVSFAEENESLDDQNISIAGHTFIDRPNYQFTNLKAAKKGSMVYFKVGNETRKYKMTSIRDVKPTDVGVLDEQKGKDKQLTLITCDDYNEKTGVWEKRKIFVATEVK

C=C(C)[C@H](CC=C(C)C)Cc1c(O)cc(OC)c(C(=O)/C=C/c2ccc(O)cc2O)c1O [Kuraridin, (E)-1-[2,4-dihydroxy-6-methoxy-3-(5-methyl-2-prop-1-en-2-ylhex-4-enyl)phenyl]-3-(2,4-dihydroxyphenyl)prop-2-en-1-one]
fluorescence cleavage assay of Abz-LPETG-K(Dnp)-NH2 with recombinant SrtA: LogIC50 1.699 ± 0.055
